Source: patent US20240076284A1, “NEW COMPOUNDS AND METHODS” (BENEVOLENTAI BIO LIMITED, priority 2020, published 2024)

Columns and labels:
[1] = molecular target: T1, Ba/F3 cells expressing BCR-ABL (Homo sapiens, UniProt P00519); experiment: Ba/F3 CellTiter-Glo Assay; type: cell-based; conditions: 48 h incubation, CellTiter-Glo luminescence
T1 construct: BCR (fusion partner, N-terminal portion of BCR); host or cells: Ba/F3 (murine pro-B cells); the other entry of the earlier key: BCR (P11274, Breakpoint cluster region protein)
T1 sequence (P00519 229-512 limits assumed): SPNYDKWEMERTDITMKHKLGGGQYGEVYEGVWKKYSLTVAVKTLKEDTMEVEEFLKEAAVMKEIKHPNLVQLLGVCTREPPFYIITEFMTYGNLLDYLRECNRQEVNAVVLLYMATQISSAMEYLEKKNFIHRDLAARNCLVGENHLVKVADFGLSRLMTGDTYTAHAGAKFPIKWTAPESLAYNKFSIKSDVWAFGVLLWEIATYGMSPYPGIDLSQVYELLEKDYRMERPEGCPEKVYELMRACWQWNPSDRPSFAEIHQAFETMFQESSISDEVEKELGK
Method: The CellTiter-Glo luminescent cell viability assay is a homogeneous method of determining the number of viable cells in culture based on quantification of the ATP present. Briefly, IL-3 dependent Ba/F3 cells are modified to express BCR-ABL. Activity of the transformed kinase overrides IL-3 dependency for cellular proliferation and survival. […] In this assay Ba/F3 cells expressing BCR-ABL (Advanced Cellular Dynamics) or parental Ba/F3 (control) cells were prepared at 5×10^4/mL in RPMI 1640 containing 10% FBS, 1×Glutamax and 750 ng/mL puromycin. Test compounds were dispensed into 384 well plates using the Tecan D300e at a top final assay concentration of 10 μM with dosing normalised to 0.1% DMSO in […]. 50 μL cells were added to each well of the prepared 384 well plates and the plates spun at 1000 rpm for 1 min prior to incubation at 37° C., 5% CO2 for 48 h. After 48 h 15 μL CellTiter-Glo reagent was added to each well in the plate. Following a 60 min incubation at rt luminescence was read on the Pherastar FS reader.

MDR1 = molecular target: T2, MDR1 (Homo sapiens, UniProt P08183); experiment: MDR1-MDCK effective efflux ratio; type: in vitro ADME; conditions: MDR1-MDCK relative to wild-type MDCK, 1 μM, 60 minutes, pH 7.4
T2 construct: expressed in transfected cells; host or cells: MDCK (canine kidney) cells
T2 sequence (P08183 whole entry, species assumed): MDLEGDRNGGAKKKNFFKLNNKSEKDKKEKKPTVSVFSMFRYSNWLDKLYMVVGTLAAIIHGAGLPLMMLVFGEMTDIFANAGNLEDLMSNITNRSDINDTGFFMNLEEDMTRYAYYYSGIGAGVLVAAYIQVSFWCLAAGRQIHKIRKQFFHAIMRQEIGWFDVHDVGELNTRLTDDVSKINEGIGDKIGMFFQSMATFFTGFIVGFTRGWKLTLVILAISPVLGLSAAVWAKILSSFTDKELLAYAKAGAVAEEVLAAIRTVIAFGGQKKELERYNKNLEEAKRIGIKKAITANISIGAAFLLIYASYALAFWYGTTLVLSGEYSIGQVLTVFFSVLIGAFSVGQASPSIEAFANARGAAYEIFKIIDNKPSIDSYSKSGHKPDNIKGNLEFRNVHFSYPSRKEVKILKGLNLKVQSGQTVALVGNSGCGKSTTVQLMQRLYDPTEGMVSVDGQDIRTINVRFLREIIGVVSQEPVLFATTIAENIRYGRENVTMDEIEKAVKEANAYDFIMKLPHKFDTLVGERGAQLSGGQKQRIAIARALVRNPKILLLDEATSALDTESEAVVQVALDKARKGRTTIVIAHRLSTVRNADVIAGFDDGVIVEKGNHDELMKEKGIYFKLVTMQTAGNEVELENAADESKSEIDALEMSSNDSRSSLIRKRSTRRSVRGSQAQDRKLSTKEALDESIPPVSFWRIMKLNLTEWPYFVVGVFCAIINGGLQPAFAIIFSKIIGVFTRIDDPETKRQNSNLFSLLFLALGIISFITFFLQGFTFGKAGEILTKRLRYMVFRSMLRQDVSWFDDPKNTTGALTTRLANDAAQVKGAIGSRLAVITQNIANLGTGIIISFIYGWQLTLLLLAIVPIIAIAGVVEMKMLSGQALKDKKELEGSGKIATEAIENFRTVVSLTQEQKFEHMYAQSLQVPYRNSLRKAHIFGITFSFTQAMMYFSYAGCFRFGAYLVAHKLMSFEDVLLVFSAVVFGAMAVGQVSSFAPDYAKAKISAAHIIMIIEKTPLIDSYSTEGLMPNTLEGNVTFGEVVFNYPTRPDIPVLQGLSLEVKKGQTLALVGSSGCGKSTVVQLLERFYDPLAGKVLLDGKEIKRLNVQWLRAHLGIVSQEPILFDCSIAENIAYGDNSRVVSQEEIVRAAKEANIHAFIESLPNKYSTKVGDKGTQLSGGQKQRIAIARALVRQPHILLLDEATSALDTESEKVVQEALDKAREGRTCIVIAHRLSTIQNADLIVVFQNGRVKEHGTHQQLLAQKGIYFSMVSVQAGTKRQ
Method: (§1) Wild-type MDCK, MDR1-MDCK and BCRP-MDCK cells were seeded into 24 well Transwell plates and cultured for 3 days to form monolayers. Test compound were prepared at 1 μM in Hanks' Balanced Salt Solution containing 25 mM HEPES and loaded into the donor compartments of Transwell plates bearing the cell monolayers (pH 7.4 for both donor and receiver compartments). Lucifer Yellow was added to the apical buffer in all wells to assess integrity of the cell monolayer. Duplicate wells were prepared and incubated at 37° C. in a CO2 incubator. Samples were removed at time zero and 60 minutes and test compound analysed by LC-MS/MS. Concentrations of Lucifer Yellow in the samples was measured using a fluorescence plate reader. The apparent permeability (Papp) values of test compound was determined for both the apical to basal (A>B) and basal to apical (B>A) permeation and the efflux ratio (B>A: A>B) determined in each cell line. The effective efflux ratio was determined from the ratio of either MDR1-MDCK cells or BCRP-MDCK cells relative to the ratio observed in wild-type cells. A higher value represent a better substrate for the efflux mechanism, which is less preferable.

BCRP = molecular target: T3, BCRP (Homo sapiens, UniProt Q9UNQ0); experiment: BCRP-MDCK effective efflux ratio; type: in vitro ADME; conditions: BCRP-MDCK relative to wild-type MDCK, 1 μM, 60 minutes, pH 7.4
T3 construct: expressed in transfected cells; host or cells: MDCK (canine kidney) cells
T3 sequence (Q9UNQ0 1-655): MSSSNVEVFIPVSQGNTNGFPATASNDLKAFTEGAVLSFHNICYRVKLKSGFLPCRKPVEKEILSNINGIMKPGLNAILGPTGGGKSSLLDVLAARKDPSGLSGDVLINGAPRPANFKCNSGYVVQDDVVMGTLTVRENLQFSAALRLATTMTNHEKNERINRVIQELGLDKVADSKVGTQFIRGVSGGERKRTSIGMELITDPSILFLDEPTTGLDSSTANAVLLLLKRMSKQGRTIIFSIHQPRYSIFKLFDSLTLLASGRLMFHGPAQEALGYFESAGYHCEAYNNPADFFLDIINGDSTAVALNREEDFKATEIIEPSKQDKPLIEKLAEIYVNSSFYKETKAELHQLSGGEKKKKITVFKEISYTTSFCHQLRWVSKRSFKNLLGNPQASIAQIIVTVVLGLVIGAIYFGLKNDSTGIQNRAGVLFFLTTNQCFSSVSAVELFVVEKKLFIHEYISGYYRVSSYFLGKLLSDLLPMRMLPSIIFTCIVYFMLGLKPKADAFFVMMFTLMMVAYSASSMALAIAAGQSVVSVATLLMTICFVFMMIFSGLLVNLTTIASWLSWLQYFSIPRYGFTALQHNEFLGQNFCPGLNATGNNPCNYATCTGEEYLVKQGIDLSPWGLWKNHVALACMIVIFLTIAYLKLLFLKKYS
Method: as §1

[2] = Human microsomal stability; type: in vitro ADME; conditions: human microsomes, first value of cell; NADPH, 37° C., up to 40 min
Method: (§2) This assay measures the metabolic stability of a given compound and predicts intrinsic liver clearance for various species. A quench plate is initially prepared which contains 400 μL MeCN and 25 ng/mL of internal standard. An aliquot of microsomes is defrosted and subsequently diluted with buffer. A solution of NADPH is made up fresh just before initialising the assay. 445 μL of microsome solution is added to the desired compound (5 μL in 10 μM DMSO) and the resulting solution mixed. The reaction is initiated by the addition of 50 μL of NADPH, a T0 sample is removed before the addition and quenched. The sample plate is kept at a constant 37° C. during the incubation. At pre-determined timepoints (2.5, 5, 10, 20 and 40 min) the incubation is mixed and 22.5 μL samples are transferred to quench plates. After completion of the time course, the quench plates are sealed and shaken for a minimum of 5 min, before centrifugation at 4000 rpm for 5 min. The supernatant is then subsequently transferred to a fresh plate and diluted 1:3 with MeOH/H2O. The plates are then heat sealed and analysed by a Water Acquity UPLC and a Waters TQ-S mass spectrometer. Waters MassLynx software is used for analysis using an MRM transition that has been previously generated from prior optimisation. After acquiring the data on the system the chromatograms are processed and checked using TargetLynx XS software and the raw data output is copied into a microsomal stability workbook. The workbook automatically populates and derives the CLint, t1/2 and scales the CLint values to generate Eh and predicted CL values. The analyst has the final workbook quality checked before the experiment is signed off.

Rat microsomal stability = type: in vitro ADME; conditions: rat microsomes, second value of cell; NADPH, 37° C., up to 40 min
Method: as §2

Cc1ccc(C(=O)Nc2cc(C(F)(F)F)ccn2)cc1-n1cc(-c2cccnc2)cn1 [Example 1, 4-Methyl-3-[4-(3-pyridyl)pyrazol-1-yl]-N-[4-(trifluoromethyl)-2-pyridyl]benzamide]
IC50 [1]: 22 nM | MDCK MDR1 EER (MDR1): 1 | MDCK BCRP EER (BCRP): 1.5 | Microsomal stability (human/rat) Eh [2]: 0.70 | Microsomal stability (human/rat) Eh (Rat microsomal stability): 0.69

Cc1ccc(C(=O)Nc2cc(CN3CCOCC3)cc(C(F)(F)F)c2)cc1-n1cc(-c2cccnc2)cn1 [Comparative example 2, 4-Methyl-N-[3-(morpholinomethyl)-5-(trifluoromethyl)phenyl]-3-[4-(3-pyridyl)pyrazol-1-yl]benzamide, reference compound]
MDCK MDR1 EER (MDR1): 6.5 | MDCK BCRP EER (BCRP): 1.8 | Microsomal stability (human/rat) Eh [2]: 0.96 | Microsomal stability (human/rat) Eh (Rat microsomal stability): 0.99

Cc1ccc(C(=O)Nc2cc(C(F)(F)F)ccn2)cc1-n1cc(-c2cncc(F)c2)cn1 [Example 8, 3-[4-(5-Fluoropyridin-3-yl)-1H-pyrazol-1-yl]-4-methyl-N-[4-(trifluoromethyl)pyridin-2-yl]benzamide]
IC50 [1]: 29 nM | MDCK MDR1 EER (MDR1): 1.6 | MDCK BCRP EER (BCRP): 1.1

COc1cncc(-c2cnn(-c3cc(C(=O)Nc4cc(C(F)(F)F)ccn4)ccc3C)c2)c1 [Example 9, 3-[4-(5-methoxypyridin-3-yl)-1H-pyrazol-1-yl]-4-methyl-N-[4-(trifluoromethyl)pyridin-2-yl]benzamide]
IC50 [1]: 28 nM | MDCK MDR1 EER (MDR1): 1.2 | MDCK BCRP EER (BCRP): 1.1

Cc1ccc(C(=O)Nc2cc(C(F)(F)F)c(CN3CCN(C)CC3)cn2)cc1-n1cc(-c2cccnc2)cn1 [compound 6, 4-Methyl-N-[5-[(4-methylpiperazin-1-yl)methyl]-4-(trifluoromethyl)-2-pyridyl]-3-[4-(3-pyridyl)pyrazol-1-yl]benzamide, reference compound]
MDCK MDR1 EER (MDR1): 15.8 | MDCK BCRP EER (BCRP): 5.0

Cc1ccc(C(=O)Nc2cc(C(F)(F)F)ccn2)cc1-n1cc(-c2cncc(N3CCN(C)CC3)c2)cn1 [Example 6, 4-Methyl-3-[4-[5-(4-methylpiperazin-1-yl)-3-pyridyl]pyrazol-1-yl]-N-[4-(trifluoromethyl)-2-pyridyl]benzamide]
IC50 [1]: 83 nM

Cc1ccc(C(=O)Nc2cc(CN3CCCC3)cc(C(F)(F)F)c2)cc1-n1cc(-c2cccnc2)cn1 [Comparative example 1, 4-Methyl-3-[4-(3-pyridyl)pyrazol-1-yl]-N-[3-(pyrrolidin-1-ylmethyl)-5-(trifluoromethyl)phenyl]benzamide, reference compound]
Microsomal stability (human/rat) Eh [2]: 0.81 | Microsomal stability (human/rat) Eh (Rat microsomal stability): 0.93

Cc1cncc(-c2cnn(-c3cc(C(=O)Nc4cc(C(F)(F)F)ccn4)ccc3C)c2)c1 [Example 7]
IC50 [1]: 32 nM | MDCK MDR1 EER (MDR1): 1.2 | MDCK BCRP EER (BCRP): 0.8

Cc1ccc(C(=O)Nc2cc(C(F)(F)F)cc(C#N)n2)cc1-n1cc(-c2cccnc2)cn1 [Example 10, N-[6-cyano-4-(trifluoromethyl)pyridin-2-yl]-4-methyl-3-[4-(pyridin-3-yl)-1H-pyrazol-1-yl]benzamide]
IC50 [1]: 18 nM | Microsomal stability (human/rat) Eh [2]: 0.70 | Microsomal stability (human/rat) Eh (Rat microsomal stability): 0.65

CNc1ncc(-c2cnn(-c3cc(C(=O)Nc4cc(C(F)(F)F)ccn4)ccc3C)c2)cn1 [Example 5, 4-Methyl-3-[4-[2-(methylamino)pyrimidin-5-yl]pyrazol-1-yl]-N-[4-(trifluoromethyl)-2-pyridyl]benzamide]
IC50 [1]: 54 nM | MDCK MDR1 EER (MDR1): 1.1 | MDCK BCRP EER (BCRP): 1.0

Cc1ccc(C(=O)Nc2cc(C(F)(F)F)cnn2)cc1-n1cc(-c2cccnc2)cn1 [Example 2, 4-Methyl-3-[4-(3-pyridyl)pyrazol-1-yl]-N-[5-(trifluoromethyl)pyridazin-3-yl]benzamide]
IC50 [1]: 40 nM | MDCK MDR1 EER (MDR1): 2.9 | MDCK BCRP EER (BCRP): 1.5 | Microsomal stability (human/rat) Eh [2]: 0.56 | Microsomal stability (human/rat) Eh (Rat microsomal stability): 0.67

Cc1ccc(C(=O)Nc2cc(C(F)(F)F)cnn2)cc1-n1cc(-c2cccnc2)nn1 [compound 3, 4-Methyl-3-[4-(3-pyridyl)triazol-1-yl]-N-[5-(trifluoromethyl)pyridazin-3-yl]benzamide, reference compound]
MDCK MDR1 EER (MDR1): 9.8 | MDCK BCRP EER (BCRP): 8.5

Cc1ccc(C(=O)Nc2cc(C(F)(F)F)ccn2)cc1-n1ccc(-c2cccnc2)n1 [Comparative example 4, 4-Methyl-3-[3-(3-pyridyl)pyrazol-1-yl]-N-[4-(trifluoromethyl)-2-pyridyl]benzamide, reference compound]
IC50 [1]: 2710 nM

Cc1ccc(C(=O)Nc2ccc(CN3CCN(C)CC3)c(C(F)(F)F)c2)cc1-n1cc(-c2cnc(N)nc2)nn1 [compound 5, 3-[4-(2-aminopyrimidin-5-yl)triazol-1-yl]-4-methyl-N-[4-[(4-methylpiperazin-1-yl)methyl]-3-(trifluoromethyl)phenyl]benzamide, reference compound]
MDCK MDR1 EER (MDR1): 4.3 | MDCK BCRP EER (BCRP): 2.1
